Values quoted from earlier work, collected in Sander's compilation of Henry's law constants (doi:10.1021/je900477x).
Where “and” joins values, the source holds several entries; their conditions need not be identical. Identical values can stand only once.

Assay: Henry solubility constant Hcp at 298.15 K (mol/(m3 Pa))
Conditions: reference: Ma et al. (2010b); cited value

| Henry solubility constant Hcp | SMILES |
| --- | --- |
| 0.11 | c1ccc2c(c1)Cc1ccccc1-2 [2,3-benzindene] |
| 0.2 | c1ccc2cc3ccccc3cc2c1 [anthracene] |
| 15 | c1ccc2c(c1)-c1cccc3c1c-2cc1ccccc13 [benzo[b]fluoranthene] |
| 30 and 24 | c1cc2ccc3ccc4ccc5cccc6c(c1)c2c3c4c56 [benzo[ghi]perylene] |
| 2.3 and 2.7 | c1ccc2c(c1)ccc1c3ccccc3ccc21 [chrysene] |
| 29 and 20 | c1ccc2c(c1)-c1ccc3ccc4cccc5cc-2c1c3c45 [indeno[1,2,3-cd]pyrene] |
| 0.021 and 0.022 | c1ccc2ccccc2c1 [naphthalene] |
| 0.23 | c1ccc2c(c1)ccc1ccccc12 [phenanthrene] |

Continued, molecule first:

| SMILES | Henry solubility constant Hcp |
| --- | --- |
| c1cc2c3c(cccc3c1)CC2 [acenaphthene] | 0.072 and 0.07 |
| C1=Cc2cccc3cccc1c23 [acenaphthylene] | 0.082 and 0.1 |
| c1ccc2c(c1)cc1ccc3cccc4ccc2c1c34 [benzo[a]pyrene] | 20 and 13 |
| c1ccc2c(c1)-c1cccc3cccc-2c13 [benzo[jk]fluorene] | 0.69 and 0.75 |
| c1ccc2cc3c(cc2c1)-c1cccc2cccc-3c12 [benzo[k]fluoranthene] | 17 and 18 |
